# The source made the active and inactive calls. No cut-off for these calls is given here.
# Key:
# HepG2 = assay: Antiproliferative activity against human HepG2 cells assessed as inhibition of cell growth at 10 uM measured after 72 hrs by MTT assay relative to control; format: functional
# HT-29 = assay: Antiproliferative activity against human HT-29 cells assessed as inhibition of cell growth at 10 uM measured after 72 hrs by MTT assay relative to control; format: functional
# MDA-MB-231 [1] = assay: Antiproliferative activity against human MDA-MB-231 cells assessed as inhibition of cell growth at 10 uM measured after 72 hrs by MTT assay relative to control; format: functional
# MCF7 = assay: Antiproliferative activity against human MCF7 cells assessed as inhibition of cell growth at 10 uM measured after 72 hrs by MTT assay relative to control; format: functional
# A549 [2] = assay: Antiproliferative activity against human A549 cells assessed as inhibition of cell growth at 10 uM measured after 72 hrs by MTT assay relative to control; format: functional
# [3] = Cytotoxicity against HUVEC cells assessed as inhibition of cell growth at 10 uM measured after 72 hrs by MTT assay; format: cell-based; conditions: human
# A549 [4] = assay: Antiproliferative activity against human A549 cells assessed as inhibition of cell growth measured after 72 hrs by MTT assay; format: functional, cell-based; conditions: A549, 72 h
# MDA-MB-231 [5] = assay: Antiproliferative activity against human MDA-MB-231 cells assessed as inhibition of cell growth measured after 72 hrs by MTT assay; format: functional, cell-based; conditions: MDA-MB-231, 72 h
# A549 [6] = assay: Potency index, ratio of IC50 of CLX-4 to IC50 of compound for antiproliferative activity against human A549 cells assessed as inhibition of cell growth measured after 72 hrs by MTT assay; format: functional
# MDA-MB-231 [7] = assay: Potency index, ratio of IC50 of CLX-4 to IC50 of compound for antiproliferative activity against human MDA-MB-231 cells assessed as inhibition of cell growth measured after 72 hrs by MTT assay; format: functional
# MDA-MB-231 [8] = assay: Induction of morphological changes in human MDA-MB-231 cells assessed as rounded cell morphology at 10 to 100 uM by optical inverted microscopic analysis; format: functional, cell-based; conditions: dose 10-100 µM
# MDA-MB-231 [9] = assay: Induction of morphological changes in human MDA-MB-231 cells assessed as cell shrinkage at 10 to 100 uM by optical inverted microscopic analysis; format: functional, cell-based; conditions: dose 10-100 µM
# MDA-MB-231 [10] = assay: Induction of morphological changes in human MDA-MB-231 cells assessed as shedding of cell morphology at 10 to 100 uM by optical inverted microscopic analysis; format: functional, cell-based; conditions: dose 10-100 µM
# MDA-MB-231 [11] = assay: Antimigratory activity in human MDA-MB-231 cells assessed as cell migration at 2 uM measured after 48 hrs by wound healing assay (reference value: 67.4 %); format: functional
# MDA-MB-231 [12] = assay: Antimigratory activity in human MDA-MB-231 cells assessed as cell migration at 4 uM measured after 48 hrs by wound healing assay (reference value: 67.4 %); format: functional
# MDA-MB-231 [13] = assay: Antimigratory activity in human MDA-MB-231 cells assessed as cell migration at 8 uM measured after 48 hrs by wound healing assay (reference value: 67.4 %); format: functional
# MDA-MB-231 [14] = assay: Antimigratory activity in human MDA-MB-231 cells assessed as reduction in cell migration measured after 48 hrs by wound healing assay; format: functional, cell-based
# MDA-MB-231 [15] = assay: Induction of apoptosis in human MDA-MB-231 cells assessed as viable cells at 0.2 uM measured after 48 hrs by Annexin V-FITC/propidium iodide staining based flow cytometry (reference value: 94.1 %); format: functional; conditions: read-out: Activity
# MDA-MB-231 [16] = assay: Induction of apoptosis in human MDA-MB-231 cells assessed as early apoptotic cells at 0.2 uM measured after 48 hrs by Annexin V-FITC/propidium iodide staining based flow cytometry (reference value: 1.03 %); format: functional
# MDA-MB-231 [17] = assay: Induction of apoptosis in human MDA-MB-231 cells assessed as late apoptotic cells at 0.2 uM measured after 48 hrs by Annexin V-FITC/propidium iodide staining based flow cytometry (reference value: 4.5 %); format: functional
# MDA-MB-231 [18] = assay: Induction of apoptosis in human MDA-MB-231 cells assessed as necrotic cells at 0.2 uM measured after 48 hrs by Annexin V-FITC/propidium iodide staining based flow cytometry (reference value: 0.36 %); format: functional
# MDA-MB-231 [19] = assay: Induction of apoptosis in human MDA-MB-231 cells assessed as viable cells at 2 uM measured after 48 hrs by Annexin V-FITC/propidium iodide staining based flow cytometry (reference value: 94.1 %); format: functional; conditions: read-out: Activity
# MDA-MB-231 [20] = assay: Induction of apoptosis in human MDA-MB-231 cells assessed as early apoptotic cells at 2 uM measured after 48 hrs by Annexin V-FITC/propidium iodide staining based flow cytometry (reference value: 1.03 %); format: functional
# MDA-MB-231 [21] = assay: Induction of apoptosis in human MDA-MB-231 cells assessed as late apoptotic cells at 2 uM measured after 48 hrs by Annexin V-FITC/propidium iodide staining based flow cytometry (reference value: 4.5 %); format: functional
# MDA-MB-231 [22] = assay: Induction of apoptosis in human MDA-MB-231 cells assessed as necrotic cells at 2 uM measured after 48 hrs by Annexin V-FITC/propidium iodide staining based flow cytometry (reference value: 0.36 %); format: functional
# MDA-MB-231 [23] = assay: Induction of apoptosis in human MDA-MB-231 cells assessed as viable cells at 20 uM measured after 48 hrs by Annexin V-FITC/propidium iodide staining based flow cytometry (reference value: 94.1 %); format: functional; conditions: read-out: Activity
# MDA-MB-231 [24] = assay: Induction of apoptosis in human MDA-MB-231 cells assessed as early apoptotic cells at 20 uM measured after 48 hrs by Annexin V-FITC/propidium iodide staining based flow cytometry (reference value: 1.03 %); format: functional
# MDA-MB-231 [25] = assay: Induction of apoptosis in human MDA-MB-231 cells assessed as late apoptotic cells at 20 uM measured after 48 hrs by Annexin V-FITC/propidium iodide staining based flow cytometry (reference value: 4.5 %); format: functional
# MDA-MB-231 [26] = assay: Induction of apoptosis in human MDA-MB-231 cells assessed as necrotic cells at 20 uM measured after 48 hrs by Annexin V-FITC/propidium iodide staining based flow cytometry (reference value: 0.36 %); format: functional
# MDA-MB-231 [27] = assay: Induction of cell cycle arrest in human MDA-MB-231 cells assessed as increase in accumulation in G0/G1 phase at 0.2 to 20 uM measured after 48 hrs by propidium iodide staining based flow cytometry; format: functional; conditions: dose 0.2-20 µM
# MDA-MB-231 [28] = assay: Induction of apoptosis in human MDA-MB-231 cells assessed as increase in caspase-3 activation at 0.4 to 10 uM measured after 48 hrs by Western blot analysis; format: functional, cell-based; conditions: dose 0.4-10 µM
# MDA-MB-231 [29] = assay: Induction of apoptosis in human MDA-MB-231 cells assessed as increase in cleaved PARP level at 0.4 to 10 uM measured after 48 hrs by Western blot analysis; format: functional, cell-based; conditions: dose 0.4-10 µM
# MDA-MB-231 [30] = assay: Induction of apoptosis in human MDA-MB-231 cells assessed as increase in Bax expression at 0.4 to 10 uM measured after 48 hrs by Western blot analysis; format: functional, cell-based; conditions: dose 0.4-10 µM
# MDA-MB-231 [31] = assay: Induction of apoptosis in human MDA-MB-231 cells assessed as decrease in Bcl-2 expression at 0.4 to 10 uM measured after 48 hrs by Western blot analysis; format: functional, cell-based; conditions: dose 0.4-10 µM
# MDA-MB-231 [32] = assay: Induction of apoptosis in human MDA-MB-231 cells assessed as increase in ratio of Bax/Bcl-2 at 0.4 to 10 uM measured after 48 hrs by Western blot analysis; format: functional, cell-based; conditions: dose 0.4-10 µM
# MDA-MB-231 [33] = assay: Induction of cell cycle arrest in human MDA-MB-231 cells assessed as decrease in CDK4 expression at 0.4 to 10 uM measured after 48 hrs by Western blot analysis; format: functional, cell-based; conditions: dose 0.4-10 µM
# MDA-MB-231 [34] = assay: Induction of cell cycle arrest in human MDA-MB-231 cells assessed as decrease in CyclinD1 expression at 0.4 to 10 uM measured after 48 hrs by Western blot analysis; format: functional, cell-based; conditions: dose 0.4-10 µM
# MDA-MB-231 [35] = assay: Induction of apoptosis in human MDA-MB-231 cells assessed as increase in fluorescence intensity at 0.2 to 20 uM measured after 48 hrs by Hoechst 33342 staining based fluorescence microscopic analysis; format: functional, cell-based; conditions: dose 0.2-20 µM
# MDA-MB-231 [36] = assay: Induction of apoptosis in human MDA-MB-231 cells assessed as nuclear condensation at 0.2 to 20 uM measured after 48 hrs by Hoechst 33342 staining based fluorescence microscopic analysis; format: functional, cell-based; conditions: dose 0.2-20 µM
# MDA-MB-231 [37] = assay: Induction of apoptosis in human MDA-MB-231 cells assessed as nuclear rupture at 0.2 to 20 uM measured after 48 hrs by Hoechst 33342 staining based fluorescence microscopic analysis; format: functional, cell-based; conditions: dose 0.2-20 µM
# MDA-MB-231 [38] = assay: Induction of apoptosis in human MDA-MB-231 cells assessed as increase in apoptotic bodies at 0.2 to 20 uM measured after 48 hrs by Hoechst 33342 staining based fluorescence microscopic analysis; format: functional, cell-based; conditions: dose 0.2-20 µM
smiles,measurement,setting,value
CCC(Oc1c2cc(C(C)(C)C)cc1Cc1cc(C(C)(C)C)cc(c1O)Cc1cc(C(C)(C)C)cc(c1OC(CC)C(=O)N(CCO)CCO)Cc1cc(C(C)(C)C)cc(c1O)C2)C(=O)N(CCO)CCO (stereo unspecified),inhibition at 10 µM,HepG2,89.6%
same,inhibition at 10 µM,HT-29,64.2%
same,inhibition at 10 µM,MDA-MB-231 [1],88.2%
same,inhibition at 10 µM,MCF7,90.4%
same,inhibition at 10 µM,A549 [2],90.7%
same,"inhibition at 72 h, 10 µM",[3],9.6%
same,IC50,A549 [4],1200 nM
same,IC50,MDA-MB-231 [5],660 nM
same,Ratio IC50,A549 [6],3.2
same,Ratio IC50,MDA-MB-231 [7],6.8
same,Activity,MDA-MB-231 [8],Active
same,Activity,MDA-MB-231 [9],Active
same,Activity,MDA-MB-231 [10],Active
same,Activity,MDA-MB-231 [11],76.9%
same,Activity,MDA-MB-231 [12],79%
same,Activity,MDA-MB-231 [13],84%
same,Activity,MDA-MB-231 [14],Dose-dependent effect
same,viability at 0.2 µM,MDA-MB-231 [15],65.5%
same,Activity,MDA-MB-231 [16],12.3%
same,Activity,MDA-MB-231 [17],21.2%
same,Activity,MDA-MB-231 [18],1.13%
same,viability at 2 µM,MDA-MB-231 [19],56.9%
same,Activity,MDA-MB-231 [20],22.1%
same,Activity,MDA-MB-231 [21],20.7%
same,Activity,MDA-MB-231 [22],0.34%
same,viability at 20 µM,MDA-MB-231 [23],39%
same,Activity,MDA-MB-231 [24],19.2%
same,Activity,MDA-MB-231 [25],40.4%
same,Activity,MDA-MB-231 [26],1.37%
same,Activity,MDA-MB-231 [27],Active
same,Activity,MDA-MB-231 [28],Active
same,Activity,MDA-MB-231 [29],Active
same,Activity,MDA-MB-231 [30],Active
same,Activity,MDA-MB-231 [31],Active
same,Activity,MDA-MB-231 [32],Active
same,Activity,MDA-MB-231 [33],Active
same,Activity,MDA-MB-231 [34],Active
same,Activity,MDA-MB-231 [35],Active
same,Activity,MDA-MB-231 [36],Active
same,Activity,MDA-MB-231 [37],Active
same,Activity,MDA-MB-231 [38],Active

# From ChEMBL document CHEMBL4732096, “Design, synthesis and evaluation of calix[4]arene-based carbonyl amide derivatives with antitumor activities” (Eur J Med Chem, 2021)
